Activity calls are given as the source filed them.
Key:
[1] = biological target: T1, Intestinal-type alkaline phosphatase (Homo sapiens, UniProt P09923); experiment: human IAP inhibitors, dose response, biochemical, luminescent, uHTS hits, set 2 (AID 488793); type: functional
[2] = biological target: T1, Intestinal-type alkaline phosphatase; experiment: Dose Response confirmation of uHTS hits from a small molecule inhibitors of human intestinal alkaline phosphatase via a luminescent assay. [Related pubchem assays (depositor defined):AID2544, AID2574]; type: functional
[3] = biological target: T2, Alkaline phosphatase, tissue-nonspecific isozyme (Homo sapiens, UniProt P05186); experiment: inhibition of tissue-nonspecific alkaline phosphatase – biochemical, dose response (AID 488882); type: functional
T2 sequence (P05186 whole entry): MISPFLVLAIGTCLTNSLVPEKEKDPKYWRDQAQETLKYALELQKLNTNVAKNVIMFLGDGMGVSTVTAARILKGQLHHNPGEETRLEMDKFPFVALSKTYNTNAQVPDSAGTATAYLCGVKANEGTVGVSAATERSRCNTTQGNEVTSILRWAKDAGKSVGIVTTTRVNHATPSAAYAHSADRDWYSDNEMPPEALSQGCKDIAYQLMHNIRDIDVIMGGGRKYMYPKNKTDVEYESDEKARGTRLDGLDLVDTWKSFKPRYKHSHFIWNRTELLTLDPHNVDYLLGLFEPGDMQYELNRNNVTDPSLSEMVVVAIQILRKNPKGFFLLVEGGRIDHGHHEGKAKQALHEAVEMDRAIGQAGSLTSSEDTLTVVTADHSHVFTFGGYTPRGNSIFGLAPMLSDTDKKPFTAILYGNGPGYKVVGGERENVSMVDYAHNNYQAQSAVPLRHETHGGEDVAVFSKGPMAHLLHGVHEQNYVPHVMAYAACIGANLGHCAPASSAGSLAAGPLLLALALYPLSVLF

Nonstructural protein 1 = Nonstructural protein 1 (Influenza A virus, UniProt Q194T2); type: functional, Influenza A virus (A/California/07/2009(H1N1))
[4] = biological target: Intestinal-type alkaline phosphatase (Mus musculus, UniProt P24822); experiment: PubChem AID 488874; type: functional
[5] = biological target: T3, Oxysterols receptor LXR-beta (Homo sapiens, UniProt P55055); type: functional, cell-based;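 note: Cell-based luminescence dose-response assay of agonist activity at LXR, run as a confirmatory counterscreen to a daf-12 agonist screen; HEK293 cells with Gal4-LXR fusion and GAL4-driven luciferase reporter; agonist potency from rising luciferase signal of a Gal4-LXR reporter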
T3 sequence (P55055 whole entry): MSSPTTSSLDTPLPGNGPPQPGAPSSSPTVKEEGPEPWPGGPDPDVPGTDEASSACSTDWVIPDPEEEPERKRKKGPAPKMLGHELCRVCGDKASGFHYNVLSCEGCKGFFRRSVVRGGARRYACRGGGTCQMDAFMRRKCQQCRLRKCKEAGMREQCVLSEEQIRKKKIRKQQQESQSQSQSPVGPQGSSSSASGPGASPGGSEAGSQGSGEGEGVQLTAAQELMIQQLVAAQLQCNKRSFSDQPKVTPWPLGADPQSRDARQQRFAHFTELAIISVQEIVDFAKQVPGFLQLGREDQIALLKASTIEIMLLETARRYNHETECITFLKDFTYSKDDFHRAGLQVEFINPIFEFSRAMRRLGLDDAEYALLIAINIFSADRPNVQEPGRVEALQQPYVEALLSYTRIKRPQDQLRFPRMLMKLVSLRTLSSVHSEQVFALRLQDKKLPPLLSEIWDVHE

A-375 [6] = experiment: MITF: Counter assay: A375 proliferation Measured in Cell-Based System Using Plate Reader - 2084-03_Inhibitor_Dose_DryPowder_Activity. [Related pubchem assays (depositor defined):AID488944]; type: functional; conditions: Homo sapiens
A-375 [7] = experiment: A375 melanoma cell viability reduction, dose response, counter-screen for MITF modulator project, cherry-pick samples, set 2 (AID 540335); type: functional, cell-based; conditions: Homo sapiens
[8] = growth suppression of PTEN-null colon cells, dose response, cell-based, HCT116 PTEN knockout (AID 1047); type: functional;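 note: HCT116 colon tumor cells with PTEN knocked out; cells exposed to compound for 60 hours before readout; potency for loss of cell viability measured by luminescence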
[9] = growth suppression of beta-catenin-knockout colon cells, dose response, cell-based, HCT116, human colon tumor (AID 1045); type: functional;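 note: HCT116 colon tumor cells with beta catenin knocked out; cells exposed to compound for 60 hours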
[10] = biological target: T4, Voltage-dependent T-type calcium channel subunit alpha-1H (Homo sapiens, UniProt O95180); experiment: Cav3.2 T-type channel inhibitors, synthesized analogs, SAR follow-up, cell-based, synthetic library set 2, HEK293 HH8, Fluo-4 (AID 493023); type: functional
[11] = biological target: T4, Voltage-dependent T-type calcium channel subunit alpha-1H; experiment: Cav3.2 T-type channel blockers, cell-based, SynthLib3 library, HEK293 Cav3.2, fluorescence (AID 493041); type: functional

T1 sequence (P09923 whole entry): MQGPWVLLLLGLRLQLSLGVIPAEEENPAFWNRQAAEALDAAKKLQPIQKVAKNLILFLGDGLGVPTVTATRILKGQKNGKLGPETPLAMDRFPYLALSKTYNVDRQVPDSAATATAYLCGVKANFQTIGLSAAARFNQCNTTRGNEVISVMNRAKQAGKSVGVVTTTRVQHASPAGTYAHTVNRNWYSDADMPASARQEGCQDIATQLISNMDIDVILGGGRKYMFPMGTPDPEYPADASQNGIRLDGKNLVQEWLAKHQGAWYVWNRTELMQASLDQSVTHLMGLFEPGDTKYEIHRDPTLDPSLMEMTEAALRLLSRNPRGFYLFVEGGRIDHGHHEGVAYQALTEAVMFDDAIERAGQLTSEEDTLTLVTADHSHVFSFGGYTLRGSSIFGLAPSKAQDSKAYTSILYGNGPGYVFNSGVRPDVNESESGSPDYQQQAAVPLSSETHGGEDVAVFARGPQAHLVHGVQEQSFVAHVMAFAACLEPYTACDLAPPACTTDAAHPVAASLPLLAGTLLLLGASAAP
T4 sequence (O95180 whole entry): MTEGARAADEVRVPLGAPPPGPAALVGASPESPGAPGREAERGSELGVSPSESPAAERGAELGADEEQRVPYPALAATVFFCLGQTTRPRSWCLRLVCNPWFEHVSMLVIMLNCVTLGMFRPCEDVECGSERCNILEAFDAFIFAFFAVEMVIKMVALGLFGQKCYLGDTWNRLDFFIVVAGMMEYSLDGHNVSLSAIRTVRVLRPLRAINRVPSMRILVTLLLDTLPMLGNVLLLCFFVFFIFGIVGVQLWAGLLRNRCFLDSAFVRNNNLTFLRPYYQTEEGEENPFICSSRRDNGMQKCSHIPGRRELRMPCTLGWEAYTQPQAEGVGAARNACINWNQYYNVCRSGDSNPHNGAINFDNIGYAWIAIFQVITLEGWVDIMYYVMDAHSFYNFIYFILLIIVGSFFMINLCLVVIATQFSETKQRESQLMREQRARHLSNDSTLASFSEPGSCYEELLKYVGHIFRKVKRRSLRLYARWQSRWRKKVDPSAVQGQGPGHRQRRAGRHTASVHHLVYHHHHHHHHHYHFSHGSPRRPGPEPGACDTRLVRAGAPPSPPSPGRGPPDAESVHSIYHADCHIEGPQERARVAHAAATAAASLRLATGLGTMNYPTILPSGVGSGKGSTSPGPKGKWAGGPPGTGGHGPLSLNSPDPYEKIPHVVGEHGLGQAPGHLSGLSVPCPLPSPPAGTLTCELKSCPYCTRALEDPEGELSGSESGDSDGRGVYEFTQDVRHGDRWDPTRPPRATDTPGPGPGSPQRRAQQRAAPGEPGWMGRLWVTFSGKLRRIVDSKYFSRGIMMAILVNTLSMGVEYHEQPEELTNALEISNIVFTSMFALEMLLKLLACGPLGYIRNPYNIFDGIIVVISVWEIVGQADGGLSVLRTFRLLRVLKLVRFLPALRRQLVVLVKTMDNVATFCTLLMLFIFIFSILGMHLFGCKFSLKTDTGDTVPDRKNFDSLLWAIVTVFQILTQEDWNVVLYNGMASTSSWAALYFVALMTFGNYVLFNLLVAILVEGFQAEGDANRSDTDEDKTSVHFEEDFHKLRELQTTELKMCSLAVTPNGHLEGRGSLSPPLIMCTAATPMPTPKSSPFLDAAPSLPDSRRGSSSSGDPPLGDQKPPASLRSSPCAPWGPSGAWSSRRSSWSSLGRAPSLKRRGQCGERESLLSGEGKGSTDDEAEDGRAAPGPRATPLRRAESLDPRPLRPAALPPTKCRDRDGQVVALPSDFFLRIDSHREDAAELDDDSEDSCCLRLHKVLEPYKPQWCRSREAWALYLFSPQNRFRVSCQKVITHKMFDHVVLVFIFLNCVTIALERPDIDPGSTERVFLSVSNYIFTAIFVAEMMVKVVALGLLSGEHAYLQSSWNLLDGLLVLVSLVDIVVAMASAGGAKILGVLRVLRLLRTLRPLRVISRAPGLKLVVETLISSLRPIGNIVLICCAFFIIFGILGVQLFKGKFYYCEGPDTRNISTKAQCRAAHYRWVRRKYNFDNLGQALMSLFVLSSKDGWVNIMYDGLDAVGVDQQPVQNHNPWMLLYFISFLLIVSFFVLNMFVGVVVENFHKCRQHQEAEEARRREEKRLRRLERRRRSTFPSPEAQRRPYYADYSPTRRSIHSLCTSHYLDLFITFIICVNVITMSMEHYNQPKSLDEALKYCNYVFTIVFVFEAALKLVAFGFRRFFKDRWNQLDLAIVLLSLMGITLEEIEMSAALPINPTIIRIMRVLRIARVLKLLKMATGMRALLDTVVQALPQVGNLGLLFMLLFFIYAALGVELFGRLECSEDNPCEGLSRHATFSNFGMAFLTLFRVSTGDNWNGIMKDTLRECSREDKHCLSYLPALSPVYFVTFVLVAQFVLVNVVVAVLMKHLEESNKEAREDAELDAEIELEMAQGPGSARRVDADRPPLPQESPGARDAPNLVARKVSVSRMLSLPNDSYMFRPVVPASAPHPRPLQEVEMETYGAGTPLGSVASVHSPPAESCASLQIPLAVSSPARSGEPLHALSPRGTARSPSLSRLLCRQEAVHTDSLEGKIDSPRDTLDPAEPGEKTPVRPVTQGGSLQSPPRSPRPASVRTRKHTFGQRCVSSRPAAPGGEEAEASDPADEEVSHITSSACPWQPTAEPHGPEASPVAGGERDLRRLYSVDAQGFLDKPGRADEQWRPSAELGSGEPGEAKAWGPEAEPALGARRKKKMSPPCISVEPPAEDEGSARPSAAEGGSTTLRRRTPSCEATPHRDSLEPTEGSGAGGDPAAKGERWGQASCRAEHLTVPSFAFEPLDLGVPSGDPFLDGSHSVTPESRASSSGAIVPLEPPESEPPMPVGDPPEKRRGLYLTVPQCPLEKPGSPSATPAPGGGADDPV
Nonstructural protein 1, sequence (Q194T2 whole entry): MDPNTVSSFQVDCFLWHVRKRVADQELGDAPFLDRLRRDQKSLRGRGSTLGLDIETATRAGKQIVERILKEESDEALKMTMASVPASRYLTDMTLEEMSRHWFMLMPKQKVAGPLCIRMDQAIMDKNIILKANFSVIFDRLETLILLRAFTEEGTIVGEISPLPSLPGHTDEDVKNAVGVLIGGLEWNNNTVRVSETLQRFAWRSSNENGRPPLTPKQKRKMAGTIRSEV
Intestinal-type alkaline phosphatase (Mus musculus, UniProt P24822), sequence (P24822 whole entry, the tested form may be a part): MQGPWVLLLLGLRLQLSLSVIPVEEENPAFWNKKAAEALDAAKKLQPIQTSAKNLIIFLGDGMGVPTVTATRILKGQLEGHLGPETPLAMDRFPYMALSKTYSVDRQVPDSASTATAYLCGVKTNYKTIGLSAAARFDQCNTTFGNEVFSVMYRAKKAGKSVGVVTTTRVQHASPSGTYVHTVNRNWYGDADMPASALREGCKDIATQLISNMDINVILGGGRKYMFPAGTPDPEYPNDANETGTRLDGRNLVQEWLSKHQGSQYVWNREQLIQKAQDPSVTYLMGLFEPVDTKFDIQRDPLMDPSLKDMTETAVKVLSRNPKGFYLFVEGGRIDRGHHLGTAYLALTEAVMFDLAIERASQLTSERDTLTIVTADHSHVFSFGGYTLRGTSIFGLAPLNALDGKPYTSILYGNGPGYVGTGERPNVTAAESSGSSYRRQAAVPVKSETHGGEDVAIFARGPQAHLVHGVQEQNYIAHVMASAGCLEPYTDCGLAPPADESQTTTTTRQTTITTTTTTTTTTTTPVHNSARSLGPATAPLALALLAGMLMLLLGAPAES

Compound: CN(C)c1ccc(N=Nc2ccccc2Br)cc1
- IC50 [1]: 30.9 µM (active)
- IC50 [2]: 28.1 µM (inactive)
- EC50 (cells): > 67.5 µM (inactive)
- IC50 [3]: 38.2 µM (active)
- IC50 (Nonstructural protein 1): 17.2 µM (active)
- IC50 [4]: 36 µM (active)
- EC50 [5]: > 67.5 µM (inactive)

Compound: CN(C)CCNC(=O)/C(=C/c1ccc(-c2ccc(Cl)cc2)o1)NC(=O)c1ccccc1
- AC50 (A-375 [6]): > 11 µM (active)
- AC50 (A-375 [7]): > 11 µM (active)
- EC50 [8]: 10.9 µM (active)
- EC50 [9]: 9.77 µM (active)

Compound: CC(C)(C)CCN1CC2CCC(NC(=O)c3cc(Cl)cc(Cl)c3)C2C1 (stereo not drawn)
- EC50 [10]: 0.66 µM (active)
- EC50 [11]: 0.08 µM (active)

— ChEMBL document CHEMBL1201862, “PubChem BioAssay data set” (2004)
